# Measured values published in PubChem BioAssay (NCI).
#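 Compound exposure: 48 hours, 5 concentrations, 96-well plates. Definition used: TGI = concentration required for complete inhibition of growth.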
# Legend:
# Assay in all cases: NCI tumour cell line growth inhibition, 48 h
# CCRF-CEM leukemia = tested on: CCRF-CEM leukemia
# T-47D breast = tested on: T-47D breast
# OVCAR-5 ovarian = tested on: OVCAR-5 ovarian
# LOX IMVI melanoma = tested on: LOX IMVI melanoma
# ACHN renal = tested on: ACHN renal
# COLO 205 colon = tested on: COLO 205 colon
# RXF 393 renal = tested on: RXF 393 renal
# SF-268 CNS = tested on: SF-268 CNS
# A549 NSCLC = tested on: A549 NSCLC
# SK-OV-3 ovarian = tested on: SK-OV-3 ovarian
# SNB-75 CNS = tested on: SNB-75 CNS
# SK-MEL-2 melanoma = tested on: SK-MEL-2 melanoma
# UACC-257 melanoma = tested on: UACC-257 melanoma
# A498 renal = tested on: A498 renal
# OVCAR-4 ovarian = tested on: OVCAR-4 ovarian
# HCT-15 colon = tested on: HCT-15 colon
# PC-3 prostate = tested on: PC-3 prostate
# SN12C renal = tested on: SN12C renal
# SR leukemia = tested on: SR leukemia
# IGROV1 ovarian = tested on: IGROV1 ovarian
# HS 578T breast = tested on: HS 578T breast
# MDA-MB-231 breast = tested on: MDA-MB-231 breast
# BT-549 breast = tested on: BT-549 breast
# CAKI-1 renal = tested on: CAKI-1 renal
# EKVX NSCLC = tested on: EKVX NSCLC
# HCT-116 colon = tested on: HCT-116 colon
# HCC-2998 colon = tested on: HCC-2998 colon
# HT29 colon = tested on: HT29 colon
# NCI-H460 lung = tested on: NCI-H460 lung
# SW-620 colon = tested on: SW-620 colon
# RPMI-8226 leukemia = tested on: RPMI-8226 leukemia
# KM12 colon = tested on: KM12 colon
# SF-295 CNS = tested on: SF-295 CNS
# UO-31 renal = tested on: UO-31 renal
# HOP-92 NSCLC = tested on: HOP-92 NSCLC
# TK-10 renal = tested on: TK-10 renal
# SK-MEL-5 melanoma = tested on: SK-MEL-5 melanoma
# OVCAR-8 ovarian = tested on: OVCAR-8 ovarian
# DU-145 prostate = tested on: DU-145 prostate
# HOP-62 NSCLC = tested on: HOP-62 NSCLC
# MDA-MB-435 = tested on: MDA-MB-435
# OVCAR-3 ovarian = tested on: OVCAR-3 ovarian
# SF-539 CNS = tested on: SF-539 CNS
# 786-0 renal = tested on: 786-0 renal
# MCF7 breast = tested on: MCF7 breast
# SNB-19 CNS = tested on: SNB-19 CNS
# MDA-N = tested on: MDA-N
# U251 CNS = tested on: U251 CNS
# NCI/ADR-RES ovarian = tested on: NCI/ADR-RES ovarian
# NCI-H522 lung = tested on: NCI-H522 lung
# UACC-62 melanoma = tested on: UACC-62 melanoma
# SK-MEL-28 melanoma = tested on: SK-MEL-28 melanoma
# NCI-H226 lung = tested on: NCI-H226 lung
# HL-60(TB) leukemia = tested on: HL-60(TB) leukemia
# NCI-H23 lung = tested on: NCI-H23 lung
# K-562 leukemia = tested on: K-562 leukemia
# M14 melanoma = tested on: M14 melanoma
# MOLT-4 leukemia = tested on: MOLT-4 leukemia
# MALME-3M melanoma = tested on: MALME-3M melanoma
smiles,measurement,setting,value
COC(=O)c1cnc(Cl)c([N+](=O)[O-])c1,TGI,CCRF-CEM leukemia,5.1 µM
same,TGI,T-47D breast,4.68 µM
same,TGI,OVCAR-5 ovarian,32 µM
same,TGI,LOX IMVI melanoma,3.68 µM
same,TGI,ACHN renal,25.1 µM
same,TGI,COLO 205 colon,12.2 µM
same,TGI,RXF 393 renal,25.1 µM
same,TGI,SF-268 CNS,7.6 µM
same,TGI,A549 NSCLC,41.6 µM
same,TGI,SK-OV-3 ovarian,33.8 µM
same,TGI,SNB-75 CNS,34.8 µM
same,TGI,SK-MEL-2 melanoma,31.5 µM
same,TGI,UACC-257 melanoma,20.3 µM
same,TGI,A498 renal,40 µM
same,TGI,OVCAR-4 ovarian,36.6 µM
same,TGI,HCT-15 colon,4.21 µM
same,TGI,PC-3 prostate,22.6 µM
same,TGI,SN12C renal,25.8 µM
same,TGI,SR leukemia,4.24 µM
same,TGI,IGROV1 ovarian,8.1 µM
same,TGI,HS 578T breast,76.4 µM
same,TGI,MDA-MB-231 breast,30.1 µM
same,TGI,BT-549 breast,32.3 µM
same,TGI,CAKI-1 renal,25.7 µM
same,TGI,EKVX NSCLC,3.28 µM
same,TGI,HCT-116 colon,8.77 µM
same,TGI,HCC-2998 colon,21.5 µM
same,TGI,HT29 colon,32.6 µM
same,TGI,NCI-H460 lung,31.5 µM
same,TGI,SW-620 colon,4.78 µM
same,TGI,RPMI-8226 leukemia,5.3 µM
same,TGI,KM12 colon,35 µM
same,TGI,SF-295 CNS,33.5 µM
same,TGI,UO-31 renal,3.55 µM
same,TGI,HOP-92 NSCLC,4.25 µM
same,TGI,TK-10 renal,30.3 µM
same,TGI,SK-MEL-5 melanoma,27.2 µM
same,TGI,OVCAR-8 ovarian,3.95 µM
same,TGI,DU-145 prostate,21.3 µM
same,TGI,HOP-62 NSCLC,36.5 µM
same,TGI,MDA-MB-435,19.4 µM
same,TGI,OVCAR-3 ovarian,28.7 µM
same,TGI,SF-539 CNS,32.1 µM
same,TGI,786-0 renal,11.2 µM
same,TGI,MCF7 breast,4.34 µM
same,TGI,SNB-19 CNS,32.4 µM
same,TGI,MDA-N,20.1 µM
same,TGI,U251 CNS,4.23 µM
same,TGI,NCI/ADR-RES ovarian,68.3 µM
same,TGI,NCI-H522 lung,3.28 µM
same,TGI,UACC-62 melanoma,32.1 µM
same,TGI,SK-MEL-28 melanoma,36 µM
same,TGI,NCI-H226 lung,36.5 µM
same,TGI,HL-60(TB) leukemia,5.73 µM
same,TGI,NCI-H23 lung,35.2 µM
same,TGI,K-562 leukemia,4.8 µM
same,TGI,M14 melanoma,27 µM
CC1OC(Oc2c(-c3cc(O)c(O)c(O)c3)oc3cc(O)cc(O)c3c2=O)C(O)C(O)C1O (stereo unspecified),TGI,T-47D breast,> 100 µM
same,TGI,OVCAR-5 ovarian,> 100 µM
same,TGI,LOX IMVI melanoma,> 100 µM
same,TGI,ACHN renal,> 100 µM
same,TGI,COLO 205 colon,> 100 µM
same,TGI,RXF 393 renal,> 100 µM
same,TGI,SF-268 CNS,> 100 µM
same,TGI,A549 NSCLC,> 100 µM
same,TGI,SK-OV-3 ovarian,> 100 µM
same,TGI,SNB-75 CNS,> 100 µM
same,TGI,SK-MEL-2 melanoma,> 100 µM
same,TGI,UACC-257 melanoma,> 100 µM
same,TGI,A498 renal,> 100 µM
same,TGI,OVCAR-4 ovarian,> 100 µM
same,TGI,HCT-15 colon,> 100 µM
same,TGI,PC-3 prostate,> 100 µM
same,TGI,SN12C renal,> 100 µM
same,TGI,SR leukemia,> 100 µM
same,TGI,IGROV1 ovarian,> 100 µM
same,TGI,HS 578T breast,> 100 µM
same,TGI,MDA-MB-231 breast,> 100 µM
same,TGI,BT-549 breast,> 100 µM
same,TGI,CAKI-1 renal,> 100 µM
same,TGI,EKVX NSCLC,> 100 µM
same,TGI,HCT-116 colon,> 100 µM
same,TGI,HCC-2998 colon,> 100 µM
same,TGI,HT29 colon,> 100 µM
same,TGI,SW-620 colon,> 100 µM
same,TGI,RPMI-8226 leukemia,> 100 µM
same,TGI,KM12 colon,> 100 µM
same,TGI,SF-295 CNS,> 100 µM
same,TGI,UO-31 renal,> 100 µM
same,TGI,HOP-92 NSCLC,> 100 µM
same,TGI,TK-10 renal,> 100 µM
same,TGI,SK-MEL-5 melanoma,> 100 µM
same,TGI,OVCAR-8 ovarian,> 100 µM
same,TGI,DU-145 prostate,> 100 µM
same,TGI,HOP-62 NSCLC,> 100 µM
same,TGI,MDA-MB-435,> 100 µM
same,TGI,OVCAR-3 ovarian,> 100 µM
same,TGI,SF-539 CNS,> 100 µM
same,TGI,786-0 renal,> 100 µM
same,TGI,MOLT-4 leukemia,> 100 µM
same,TGI,MCF7 breast,> 100 µM
same,TGI,SNB-19 CNS,> 100 µM
same,TGI,MDA-N,> 100 µM
same,TGI,U251 CNS,> 100 µM
same,TGI,MALME-3M melanoma,> 100 µM
same,TGI,NCI/ADR-RES ovarian,> 100 µM
same,TGI,NCI-H522 lung,> 100 µM
same,TGI,UACC-62 melanoma,> 100 µM
same,TGI,SK-MEL-28 melanoma,> 100 µM
same,TGI,NCI-H226 lung,> 100 µM
same,TGI,HL-60(TB) leukemia,> 100 µM
same,TGI,NCI-H23 lung,> 100 µM
same,TGI,M14 melanoma,> 100 µM
C=C1CC2(CCOc3ccc(Cl)cc32)OC1=O (stereo unspecified),TGI,CCRF-CEM leukemia,53 µM
same,TGI,T-47D breast,32.3 µM
same,TGI,OVCAR-5 ovarian,23.4 µM
same,TGI,LOX IMVI melanoma,8.88 µM
same,TGI,ACHN renal,15.4 µM
same,TGI,COLO 205 colon,6.16 µM
same,TGI,RXF 393 renal,10.7 µM
same,TGI,SF-268 CNS,16.1 µM
same,TGI,A549 NSCLC,29.3 µM
same,TGI,SK-OV-3 ovarian,26.2 µM
same,TGI,SNB-75 CNS,16.3 µM
same,TGI,SK-MEL-2 melanoma,6.29 µM
same,TGI,UACC-257 melanoma,20.1 µM
same,TGI,A498 renal,30.2 µM
same,TGI,OVCAR-4 ovarian,4.33 µM
same,TGI,HCT-15 colon,4.26 µM
same,TGI,PC-3 prostate,10.6 µM
same,TGI,SN12C renal,22.1 µM
same,TGI,SR leukemia,12.2 µM
same,TGI,IGROV1 ovarian,21.2 µM
same,TGI,HS 578T breast,23.4 µM
same,TGI,MDA-MB-231 breast,20.1 µM
same,TGI,BT-549 breast,2.75 µM
same,TGI,CAKI-1 renal,15.4 µM
same,TGI,EKVX NSCLC,21.5 µM
same,TGI,HCT-116 colon,6.98 µM
same,TGI,HCC-2998 colon,40.3 µM
same,TGI,HT29 colon,24.2 µM
same,TGI,NCI-H460 lung,12.6 µM
same,TGI,SW-620 colon,5.44 µM
same,TGI,RPMI-8226 leukemia,9.35 µM
same,TGI,KM12 colon,28 µM
same,TGI,SF-295 CNS,21.5 µM
same,TGI,UO-31 renal,11.2 µM
same,TGI,HOP-92 NSCLC,12.4 µM
same,TGI,TK-10 renal,17.5 µM
same,TGI,SK-MEL-5 melanoma,14.2 µM
same,TGI,OVCAR-8 ovarian,16.5 µM
same,TGI,DU-145 prostate,27.4 µM
same,TGI,HOP-62 NSCLC,22.7 µM
same,TGI,MDA-MB-435,14.1 µM
same,TGI,OVCAR-3 ovarian,7.52 µM
same,TGI,SF-539 CNS,0.976 µM
same,TGI,786-0 renal,7.13 µM
same,TGI,MOLT-4 leukemia,8.29 µM
same,TGI,MCF7 breast,6.16 µM
same,TGI,SNB-19 CNS,32.6 µM
same,TGI,MDA-N,17.9 µM
same,TGI,U251 CNS,22.5 µM
same,TGI,NCI/ADR-RES ovarian,24.6 µM
same,TGI,NCI-H522 lung,3.42 µM
same,TGI,UACC-62 melanoma,26.1 µM
same,TGI,SK-MEL-28 melanoma,23.3 µM
same,TGI,NCI-H226 lung,11.2 µM
same,TGI,HL-60(TB) leukemia,8.84 µM
same,TGI,NCI-H23 lung,19.5 µM
same,TGI,K-562 leukemia,> 31.5 µM
same,TGI,M14 melanoma,11.1 µM
